Data taken from ChEMBL document CHEMBL3400015, “Tertiary amides of Salinomycin: A new group of antibacterial agents against Bacillus anthracis and methicillin-resistant Staphylococcus epidermidis” (Bioorg Med Chem Lett, 2015).
≈ marks a conversion by molar mass, not a printed value.

What was measured:
Assay type in all cases: functional
[1] = test system: Staphylococcus epidermidis; test: Bactericidal activity against methicillin-resistant Staphylococcus epidermidis isolate 458/11 after 24 hrs; conditions: isolate 458/11, 24 h, read-out: MBC99.9
[2] = test system: Staphylococcus epidermidis; test: Bactericidal activity against methicillin-resistant Staphylococcus epidermidis isolate 404/10 after 24 hrs; conditions: isolate 404/10, 24 h, read-out: MBC99.9
[3] = test system: Staphylococcus epidermidis; test: Antimicrobial activity against Staphylococcus epidermidis ATCC 35984 after 18 hrs by twofold serial broth dilution method; conditions: ATCC 35984, 18 h
[4] = test system: Staphylococcus epidermidis; test: Antimicrobial activity against methicillin-resistant Staphylococcus epidermidis isolate 424/10 after 18 hrs by twofold serial broth dilution method; conditions: isolate 424/10, 18 h
[5] = test system: Staphylococcus aureus; test: Bactericidal activity against Staphylococcus aureus ATCC 25923 after 24 hrs; conditions: ATCC 25923, 24 h, read-out: MBC99.9
[6] = test system: Staphylococcus epidermidis; test: Antimicrobial activity against methicillin-resistant Staphylococcus epidermidis isolate 470/11 after 18 hrs by twofold serial broth dilution method; conditions: isolate 470/11, 18 h
[7] = test system: Staphylococcus epidermidis; test: Bactericidal activity against methicillin-resistant Staphylococcus epidermidis isolate 460/11 after 24 hrs; conditions: isolate 460/11, 24 h, read-out: MBC99.9
[8] = test system: Staphylococcus epidermidis; test: Antimicrobial activity against methicillin-resistant Staphylococcus epidermidis isolate 458/11 after 18 hrs by twofold serial broth dilution method; conditions: isolate 458/11, 18 h
[9] = test system: Staphylococcus epidermidis; test: Bactericidal activity against methicillin-resistant Staphylococcus epidermidis isolate 422/10 after 24 hrs; conditions: isolate 422/10, 24 h, read-out: MBC99.9
[10] = test system: Staphylococcus epidermidis; test: Bactericidal activity against methicillin-resistant Staphylococcus epidermidis isolate 469/11 after 24 hrs; conditions: isolate 469/11, 24 h, read-out: MBC99.9
[11] = test system: Staphylococcus aureus; test: Bactericidal activity against Staphylococcus aureus NCTC 4163 after 24 hrs; conditions: NCTC 4163, 24 h, read-out: MBC99.9
[12] = test system: Staphylococcus epidermidis; test: Bactericidal activity against Staphylococcus epidermidis ATCC 35984 after 24 hrs; conditions: ATCC 35984, 24 h, read-out: MBC99.9
[13] = test system: Staphylococcus epidermidis; test: Antimicrobial activity against methicillin-resistant Staphylococcus epidermidis isolate 422/10 after 18 hrs by twofold serial broth dilution method; conditions: isolate 422/10, 18 h
[14] = test system: Staphylococcus epidermidis; test: Antimicrobial activity against Staphylococcus epidermidis ATCC 12228 after 18 hrs by twofold serial broth dilution method; conditions: ATCC 12228, 18 h
[15] = test system: Staphylococcus aureus; test: Antimicrobial activity against Staphylococcus aureus NCTC 4163 after 18 hrs by twofold serial broth dilution method; conditions: NCTC 4163, 18 h
[16] = test system: Staphylococcus aureus; test: Bactericidal activity against Staphylococcus aureus […] after 24 hrs; conditions: read-out: MBC99.9
[17] = test system: Staphylococcus epidermidis; test: Bactericidal activity against methicillin-resistant Staphylococcus epidermidis isolate 470/11 after 24 hrs; conditions: isolate 470/11, 24 h, read-out: MBC99.9
[18] = test system: Staphylococcus epidermidis; test: Antimicrobial activity against methicillin-resistant Staphylococcus epidermidis isolate 454/11 after 18 hrs by twofold serial broth dilution method; conditions: isolate 454/11, 18 h
[19] = test system: Staphylococcus epidermidis; test: Bactericidal activity against methicillin-resistant Staphylococcus epidermidis isolate 454/11 after 24 hrs; conditions: isolate 454/11, 24 h, read-out: MBC99.9
[20] = test system: Escherichia coli; test: Bactericidal activity against Escherichia coli ATCC 10538 after 24 hrs; conditions: ATCC 10538, 24 h, read-out: MBC99.9
[21] = test system: Staphylococcus epidermidis; test: Antimicrobial activity against methicillin-resistant Staphylococcus epidermidis isolate 409/10 after 18 hrs by twofold serial broth dilution method; conditions: isolate 409/10, 18 h
[22] = test system: Staphylococcus aureus; test: Antimicrobial activity against Staphylococcus aureus ATCC 6538 after 18 hrs by twofold serial broth dilution method; conditions: ATCC 6538, 18 h
[23] = test system: Pseudomonas aeruginosa; test: Bactericidal activity against Pseudomonas aeruginosa ATCC 27853 after 24 hrs; conditions: ATCC 27853, 24 h, read-out: MBC99.9
[24] = test system: Staphylococcus epidermidis; test: Bactericidal activity against methicillin-resistant Staphylococcus epidermidis isolate 457/11 after 24 hrs; conditions: isolate 457/11, 24 h, read-out: MBC99.9
[25] = test system: Pseudomonas aeruginosa; test: Antimicrobial activity against Pseudomonas aeruginosa NCTC 6749 after 18 hrs by twofold serial broth dilution method; conditions: NCTC 6749, 18 h
[26] = test system: Staphylococcus epidermidis; test: Antimicrobial activity against methicillin-resistant Staphylococcus epidermidis isolate 404/10 after 18 hrs by twofold serial broth dilution method; conditions: isolate 404/10, 18 h
[27] = test system: Pseudomonas aeruginosa; test: Bactericidal activity against Pseudomonas aeruginosa ATCC 15442 after 24 hrs; conditions: ATCC 15442, 24 h, read-out: MBC99.9
[28] = test system: Staphylococcus aureus; test: Antimicrobial activity against Staphylococcus aureus ATCC 25923 after 18 hrs by twofold serial broth dilution method; conditions: ATCC 25923, 18 h
[29] = test system: Staphylococcus epidermidis; test: Antimicrobial activity against methicillin-resistant Staphylococcus epidermidis isolate 407/10 after 18 hrs by twofold serial broth dilution method; conditions: isolate 407/10, 18 h
[30] = test system: Staphylococcus epidermidis; test: Bactericidal activity against methicillin-resistant Staphylococcus epidermidis isolate 403/10 after 24 hrs; conditions: isolate 403/10, 24 h, read-out: MBC99.9
[31] = test system: Staphylococcus epidermidis; test: Bactericidal activity against methicillin-resistant Staphylococcus epidermidis isolate 461/11 after 24 hrs; conditions: isolate 461/11, 24 h, read-out: MBC99.9
[32] = test system: Staphylococcus aureus; test: Antimicrobial activity against Staphylococcus aureus […] after 18 hrs by twofold serial broth dilution method
[33] = test system: Staphylococcus epidermidis; test: Antimicrobial activity against methicillin-resistant Staphylococcus epidermidis isolate 469/11 after 18 hrs by twofold serial broth dilution method; conditions: isolate 469/11, 18 h
[34] = test system: Staphylococcus epidermidis; test: Antimicrobial activity against methicillin-resistant Staphylococcus epidermidis isolate 455/11 after 18 hrs by twofold serial broth dilution method; conditions: isolate 455/11, 18 h
[35] = test system: Staphylococcus epidermidis; test: Antimicrobial activity against methicillin-resistant Staphylococcus epidermidis isolate 457/11 after 18 hrs by twofold serial broth dilution method; conditions: isolate 457/11, 18 h
[36] = test system: Escherichia coli; test: Bactericidal activity against Escherichia coli ATCC 25922 after 24 hrs; conditions: ATCC 25922, 24 h, read-out: MBC99.9
[37] = test system: Escherichia coli; test: Bactericidal activity against Escherichia coli NCTC 8196 after 24 hrs; conditions: NCTC 8196, 24 h, read-out: MBC99.9
[38] = test system: Bacillus anthracis; test: Antimicrobial activity against Bacillus anthracis 34F2 after 18 hrs by twofold serial broth dilution method; conditions: 34F2, 18 h
[39] = test system: Pseudomonas aeruginosa; test: Antimicrobial activity against Pseudomonas aeruginosa ATCC 15442 after 18 hrs by twofold serial broth dilution method; conditions: ATCC 15442, 18 h
[40] = test system: Escherichia coli; test: Antimicrobial activity against Escherichia coli ATCC 25922 after 18 hrs by twofold serial broth dilution method; conditions: ATCC 25922, 18 h
[41] = test system: Escherichia coli; test: Antimicrobial activity against Escherichia coli NCTC 8196 after 18 hrs by twofold serial broth dilution method; conditions: NCTC 8196, 18 h
[42] = test system: Pseudomonas aeruginosa; test: Antimicrobial activity against Pseudomonas aeruginosa ATCC 27853 after 18 hrs by twofold serial broth dilution method; conditions: ATCC 27853, 18 h

## O=C(O)c1cn(C2CC2)c2cc(N3CCNCC3)c(F)cc2c1=O [CIPROFLOXACIN]
[1]
  MBC: > 256 µg/mL
[2]
  MBC: > 256 µg/mL
[3]
  MIC: 0.125 µg/mL (≈ 0.377 µM)
[4]
  MIC: 8 µg/mL (≈ 24.1 µM)
[5]
  MBC: 2 µg/mL (≈ 6.04 µM)
[6]
  MIC: 0.125 µg/mL (≈ 0.377 µM)
[7]
  MBC: 0.5 µg/mL (≈ 1.51 µM)
[8]
  MIC: 32 µg/mL (≈ 96.6 µM)
[9]
  MBC: 64 µg/mL (≈ 193 µM)
[10]
  MBC: 128 µg/mL (≈ 386 µM)
[11]
  MBC: 0.5 µg/mL (≈ 1.51 µM)
[12]
  MBC: 0.5 µg/mL (≈ 1.51 µM)
[13]
  MIC: 2 µg/mL (≈ 6.04 µM)
[14]
  MIC: 0.25 µg/mL (≈ 0.754 µM)
[15]
  MIC: 0.25 µg/mL (≈ 0.754 µM)
[16]
  MBC: 2 µg/mL (≈ 6.04 µM)
[17]
  MBC: 0.5 µg/mL (≈ 1.51 µM)
[18]
  MIC: 0.0625 µg/mL (≈ 0.189 µM)
[19]
  MBC: 0.25 µg/mL (≈ 0.754 µM)
[20]
  MBC: 1.6 ng/mL (≈ 0.00483 µM)
[21]
  MIC: 2 µg/mL (≈ 6.04 µM)
[22]
  MIC: 0.25 µg/mL (≈ 0.754 µM)
[23]
  MBC: 0.25 µg/mL (≈ 0.754 µM)
[24]
  MBC: > 256 µg/mL
[25]
  MIC: 0.0625 µg/mL (≈ 0.189 µM)
[26]
  MIC: 32 µg/mL (≈ 96.6 µM)
[27]
  MBC: 0.25 µg/mL (≈ 0.754 µM)
[28]
  MIC: 0.5 µg/mL (≈ 1.51 µM)
[29]
  MIC: 64 µg/mL (≈ 193 µM)
[30]
  MBC: 128 µg/mL (≈ 386 µM)
[31]
  MBC: 1 µg/mL (≈ 3.02 µM)
[32]
  MIC: 0.5 µg/mL (≈ 1.51 µM)
[33]
  MIC: 8 µg/mL (≈ 24.1 µM)
[34]
  MIC: 32 µg/mL (≈ 96.6 µM)
[35]
  MIC: 32 µg/mL (≈ 96.6 µM)
[36]
  MBC: 1.6 ng/mL (≈ 0.00483 µM)
[37]
  MBC: 1.6 ng/mL (≈ 0.00483 µM)

## CCCCCCCCN(CCCCCCCC)C(=O)[C@H](CC)[C@H]1CC[C@H](C)[C@H]([C@@H](C)[C@H](O)[C@H](C)C(=O)[C@H](CC)[C@H]2O[C@]3(C=C[C@@H](O)[C@]4(CC[C@@](C)([C@H]5CC[C@](O)(CC)[C@H](C)O5)O4)O3)[C@H](C)C[C@@H]2C)O1
[1]
  MBC: > 256 µg/mL
[2]
  MBC: > 256 µg/mL
[3]
  MIC: 128 µg/mL (≈ 131 µM)
[38]
  MIC: 64 µg/mL (≈ 65.7 µM)
[4]
  MIC: > 256 µg/mL
[5]
  MBC: > 256 µg/mL
[6]
  MIC: 256 µg/mL (≈ 263 µM)
[7]
  MBC: > 256 µg/mL
[8]
  MIC: 256 µg/mL (≈ 263 µM)
[9]
  MBC: > 256 µg/mL
[10]
  MBC: > 256 µg/mL
[11]
  MBC: > 256 µg/mL
[39]
  MIC: > 256 µg/mL
[12]
  MBC: > 256 µg/mL
[13]
  MIC: 256 µg/mL (≈ 263 µM)
[40]
  MIC: > 256 µg/mL
[14]
  MIC: 128 µg/mL (≈ 131 µM)
[15]
  MIC: 256 µg/mL (≈ 263 µM)
[41]
  MIC: > 256 µg/mL
[16]
  MBC: > 256 µg/mL
[17]
  MBC: > 256 µg/mL
[18]
  MIC: > 256 µg/mL
[19]
  MBC: > 256 µg/mL
[20]
  MBC: > 256000 ng/mL
[21]
  MIC: > 256 µg/mL
[22]
  MIC: 128 µg/mL (≈ 131 µM)
[23]
  MBC: > 256 µg/mL
[42]
  MIC: > 256 µg/mL
[24]
  MBC: > 256 µg/mL
[25]
  MIC: > 256 µg/mL
[26]
  MIC: 256 µg/mL (≈ 263 µM)
[27]
  MBC: > 256 µg/mL
[28]
  MIC: 128 µg/mL (≈ 131 µM)
[29]
  MIC: 256 µg/mL (≈ 263 µM)
[30]
  MBC: > 256 µg/mL
[31]
  MBC: > 256 µg/mL
[32]
  MIC: 256 µg/mL (≈ 263 µM)
[33]
  MIC: 256 µg/mL (≈ 263 µM)
[34]
  MIC: > 256 µg/mL
[35]
  MIC: 256 µg/mL (≈ 263 µM)
[36]
  MBC: > 256000 ng/mL
[37]
  MBC: > 256000 ng/mL
